Twelve substances from patent publication US11091749B2, “Deimmunized lysostaphin and methods of use” (TRUSTEES OF DARTMOUTH COLLEGE, priority 2014, dated 2021) can be followed below.

Like-named read-outs stand apart in the source and are kept apart here. Where no end group is shown, it is not given here.

What all share (experiment): MHC II competition binding assay
For one assay, the target named is T1, DRB1*0101 (Homo sapiens, UniProt P01903+P01911, A100R/D57E/F55L/F60I/F76Y/I96L/L162R/M171V/P40L/Q125E/R42F/V115G/Y59C).
T1 construct: purchased Benaroya Research Institute (Seattle, Wash.)
Here is the method: (§1) MHC Binding Assays. MHC II competition binding assays were performed using a 384-well high throughput assay as previously described (Salvat, et al. (2014) supra). Binding assays were performed for the eight alleles: DRB1*0101, 0301, 0401, 0701, 0801, 1101, 1301, and 1501. Briefly, 100 nM biotinylated control peptides composed of known peptide antigens for each MHC II allele were incubated in polypropylene 384-well plates with 50 nM purified recombinant MHC II protein and serial dilutions of LST or variant peptide fragments (100 μM to 10 nM). Peptide-MHC II complexes were captured from equilibrated solutions using the conformation specific anti-HLA-DR antibody L243 coated on high binding ELISA plates. Bound control peptide was quantified using the DELFIA streptavidin-Europium conjugate and time resolved fluorescence (SpectraMax Gemini Fluorescence Microplate Reader).

The next assay has as its target T2, DRB1*1501 (Homo sapiens, UniProt P01903+P01911).
T2 construct: purchased Benaroya Research Institute (Seattle, Wash.)
As for the experimental part: as §1, with “MHC II competition binding assays were performed using a 384-well high throughput assay as previously described (Salvat, et al. (2014) supra). Binding assays were performed for the eight alleles: DRB1*0101, 0301, 0401, 0701, 0801, 1101, 1301, and 1501.” left out

Another assay deals with T3, DRB1*0301 (Homo sapiens, UniProt P01903+P01911, A100K/A102G/A103R/A169T/F55Y/I96L/K41T/L162R/M171V/P40S/Q125H/Q178H/Q39Y/R42S/S66N/T106N/T262R/W38E/Y61H).
T3 construct: purchased Benaroya Research Institute (Seattle, Wash.)
As for the experimental part: as §1

A further assay has as its target DRB1*0801 (Homo sapiens, UniProt P01903+P01911, A100R/A103L/A169T/D86S/F76Y/H45Y/I96F/K41T/L162R/M171V/P40S/Q125H/Q178H/Q39Y/Q99D/R218S/R42G/S66Y/V115G/W38E). Here is the method:
as §1

The target in the next assay is DRB1*1301 (Homo sapiens, UniProt P01903+P01911, A100E/A169T/K41T/L162R/M171V/P40S/Q125H/Q178H/Q39Y/Q99D/R42S/S66N/T262R/W38E/Y61H). Here is the method:
as §1

The next assay deals with T4, DRB1*0401 (Homo sapiens, UniProt P01903+P01911, A100K/A169T/F76Y/I96L/K127E/L162R/M171V/N62H/P40V/Q125Y/R42H/S133A/S149N/S66Y/V115G/V209L/W38E).
T4 construct: purchased Benaroya Research Institute (Seattle, Wash.)
As for the experimental part:
as §1

The target in the next assay is DRB1*1101 (Homo sapiens, UniProt P01903+P01911, A100R/A169T/A87E/I96F/K41T/L162R/M171V/P40S/Q125H/Q178H/Q39Y/Q99D/R42S/S66Y/T262R/V115G/W38E). Here is the method: as §1
In the next assay the target is DRB1*0701 (Homo sapiens, UniProt P01903+P01911, A100R/A102G/A103Q/D57E/D86V/E43K/F76Y/K127E/L162R/M171V/P40G/Q125H/Q99D/R33Q/R42Y/R54Q/S133A/S66F/T210M/V115G/Y107V/Y59L/Y89S). Here is the method: as §1
[1] abbreviates: synthetic peptide competing with biotinylated control peptide, read-out: IC50 0401.

Take “Tyr93His/Lys95Glu/Ile99Gln: cluster 4 synthetic peptide with three mutations (Table 15) (DHVEAGQQIGWSGSTGY)”: in the assay with DRB1*0101, the “binder class DRB1*0101” value is on record as “weak or non-binder”. In the assay with DRB1*1501, the “binder class DRB1*1501” value is on record as “weak/non-binder”.
For the substance DYVKAGQQIGWSGSTGY [Peptide I99Q], the IC50 on DRB1*0301, on DRB1*0801 and at DRB1*1301 was more than 250 µM throughout.
For the substance GVDFFMNIGTPVKAISSGKIV [Design C2WT], the IC50 – broadly, the concentration that gives 50% inhibition – is 13.7 µM on DRB1*0401 (setting [1]); more than 250 µM on DRB1*0801 (synthetic peptide competing with biotinylated control peptide, read-out: IC50 0801); 104 µM on DRB1*1301 (synthetic peptide competing with biotinylated control peptide, read-out: IC50 1301).
As for GVDFFMNEGTPVHAISSGKIV [Design 41_46], the IC50 at DRB1*0101 was less than 0.01 µM; on DRB1*0301, more than 250 µM; at DRB1*0401, less than 0.01 µM; on DRB1*0801 it was more than 250 µM; at DRB1*1101, less than 0.01 µM; at DRB1*1301 it was more than 250 µM. The half-inhibitory concentration (IC50) at DRB1*1501 is less than 0.01 µM.
For DHVKAGQQIGWSGSTGY [Peptide 93_99], the IC50 was less than 0.01 µM on DRB1*0101 (DRB1*0101, read-out: IC50); more than 250 µM on DRB1*0301 (DRB1*0301, read-out: IC50); less than 0.01 µM at DRB1*0401 (DRB1*0401, read-out: IC50); more than 250 µM at DRB1*0801 (DRB1*0801, read-out: IC50); more than 250 µM at DRB1*1101 (DRB1*1101, read-out: IC50); more than 250 µM at DRB1*1301 (DRB1*1301, read-out: IC50). Also, the IC50 on DRB1*1501 (DRB1*1501, read-out: IC50) is less than 0.01 µM.
With GVHRQWYMHMSKYNVKVGD [Design L83M], the IC50 on DRB1*0401 (setting [1]) is more than 250 µM.
Regarding “Tyr93His/Lys95Glu: cluster 4 synthetic peptide with Tyr93His and Lys95Glu (Table 15) (DHVEAGQIIGWSGSTGY)”, the “binder class DRB1*0101” value in the assay with DRB1*0101 is “moderate (moderate if an IC50 value was in the 0.1-1 μM range)”.
Turning to DHVEAGQQIGWSGSTGY [Peptide 939599], the IC50 is more than 250 µM at DRB1*0101 (DRB1*0101, read-out: IC50); more than 250 µM on DRB1*0301 (DRB1*0301, read-out: IC50); more than 250 µM at DRB1*0401 (DRB1*0401, read-out: IC50); more than 250 µM on DRB1*0801 (DRB1*0801, read-out: IC50); more than 250 µM at DRB1*1101 (DRB1*1101, read-out: IC50); more than 250 µM at DRB1*1301 (DRB1*1301, read-out: IC50). For the same substance, the IC50 on DRB1*1501 (DRB1*1501, read-out: IC50) was more than 250 µM.
“Lys46His: full-length lysostaphin single point mutant”: the “fold decrease in binding vs wild-type peptide, 0101” value with DRB1*0101 was “two-fold”.
On to DYVEAGQIIGWSGSTGY [Peptide K95E], for which the 50% inhibitory concentration (IC50) at DRB1*0101, on DRB1*0401 and at DRB1*1501 was less than 0.01 µM in each case.
In the case of HLHFQRMVNSFGNPTAQ [Peptide S124G], the IC50 on DRB1*0101 (DRB1*0101, read-out: IC50) was less than 0.01 µM; on DRB1*0301 (DRB1*0301, read-out: IC50) it was more than 250 µM; at DRB1*0801 (DRB1*0801, read-out: IC50), more than 250 µM; at DRB1*1301 (DRB1*1301, read-out: IC50), more than 250 µM; on DRB1*1501 (DRB1*1501, read-out: IC50) it was less than 0.01 µM.
For HLHFQRMVGDFSNPTAQ [Peptide 21_22], the half-maximal inhibitory concentration (IC50) on DRB1*0101 is less than 0.01 µM; on DRB1*0301, 77.4 µM; at DRB1*0401, less than 0.01 µM; on DRB1*0701, more than 250 µM; at DRB1*0801, 210 µM; at DRB1*1101, 28.5 µM. Also, the IC50 was more than 250 µM at DRB1*1301 and less than 0.01 µM at DRB1*1501.
